Like-named read-outs stand apart in the source and are kept apart here.
Legend:
hippocampus CD11b = assay: Number of hippocampus microglial cells with CD11b positive expression in MPTP Parkinson's disease model mouse (immunohistochemistry); type: in vivo; details: hippocampus, MPTP Parkinson's disease model mouse, immunohistochemistry
midbrain CD11b = assay: Midbrain CD11b protein expression in MPTP Parkinson's disease model mouse (western-blotting); type: in vivo; details: midbrain, MPTP Parkinson's disease model mouse, western-blotting
HO-1 = assay: Midbrain HO-1 expression in MPTP Parkinson's disease model mouse (western blot); type: in vivo; details: midbrain, MPTP Parkinson's disease model mouse, western blot
substantia nigra GFAP = assay: Number of substantia nigra astrocytes with GFAP positive expression in MPTP Parkinson's disease model mouse (immunohistochemistry); type: in vivo; details: substantia nigra, MPTP Parkinson's disease model mouse, immunohistochemistry
primary glial cells = assay: Inhibition of the NO release of primary glial cells induced by LPS; type: cell-based, rat; details: for inhibition at 5 µM / inhibition at 10 µM / inhibition at 20 µM / inhibition at 2 µM: Rattus norvegicus, Glial cell, read-out: NO inhibition (%)
midbrain TH = assay: Midbrain TH expression in MPTP Parkinson's disease model mouse (western-blotting); type: in vivo; details: midbrain total protein, GAPDH internal reference, gavage 21 days after MPTP modeling

Row | Molecule | Positive cell number (microglial cells with CD11b positive expression) (hippocampus CD11b) | Expression (CD11b/GAPDH) (midbrain CD11b) | Expression (HO-1/GAPDH) (HO-1) | Positive cell number (astrocytes with GFAP positive expression) (substantia nigra GFAP) | inhibition at 5 µM (primary glial cells; 5 μM) | inhibition at 10 µM (primary glial cells; 10 μM) | inhibition at 20 µM (primary glial cells; 20 μM) | Expression (TH/GAPDH) (midbrain TH) | inhibition at 2 µM (primary glial cells) | inhibition at 5 µM (primary glial cells) | inhibition at 10 µM (primary glial cells) | inhibition at 20 µM (primary glial cells) | inhibition at 2 µM (primary glial cells; 2 μM) | NO inhibition (%) (primary glial cells; 2 μM) | NO inhibition (%) (primary glial cells; 5 μM) | NO inhibition (%) (primary glial cells; 10 μM)
1 | CN(C)c1ccc(CC(=O)Oc2cc(/C=C/S(=O)(=O)C(Br)c3ccc(Cc4ccc(N(C)C)cc4)cc3)ccc2OC(=O)N2CCCC2C(F)(F)F)cc1 (stereo not shown) [Compound M1-5] | 11 ± 1 | 0.83 ± 0.07 | 0.96 ± 0.08 | 81 ± 4 | 21.2 ± 3.12% | 45.6 ± 4.28% | 66.7 ± 4.02% | 0.83 ± 0.06 | – | – | – | – | – | – | – | –
2 | Cc1ccc(N2CCN(C(=O)Oc3ccc(/C=C/S(=O)(=O)CCCC(c4ccc(OC(=O)CN(C)C)cc4)N(C)C)cc3OC(=O)N(C)c3ccccc3)CC2)cc1 (stereo not shown) [Compound P1-1, (E)-4-{2-[4-(dimethylamino)-4-(4-(N,N-dimethylglycyloxy)phenyl)butylsulfonyl]ethenyl}-2-(N-methyl-N-phenylcarbamoyloxy)phenyl-4-(p-methylphenyl)piperazine-1-carboxylate] | 7 ± 2 | 0.70 ± 0.06 | 1.17 ± 0.05 | 73 ± 6 | – | – | – | 0.88 ± 0.04 | 25.9 ± 3.54% | 40 ± 2.66% | 78.4 ± 3.96% | – | – | – | – | –
3 | COc1ccc(CC(=O)Oc2ccc(C(N)CS(=O)(=O)/C=C/c3ccc(OC(C)(C)C)c(OC(=O)N(C)c4ccccc4)c3)cc2)cc1 (stereo not shown) [Compound P1-3, (E)-4-{1-amino-2-[4-t-butoxy-3-(N-methyl-N-phenylcarbamoyloxy)styrylsulfonyl]ethyl}phenyl-2-(4-methoxyphenyl)acetate] | 16 ± 2 | 1.09 ± 0.08 | 0.77 ± 0.10 | 69 ± 5 | – | – | – | 0.77 ± 0.03 | – | 25.8 ± 4.25% | 42 ± 5.34% | 58.2 ± 3.66% | – | – | – | –
4 | COc1ccc(CC(=O)Oc2ccc(/C(C)=C/S(=O)(=O)/C=C/c3ccc(OC(=O)N(C)C)c(O[Si](C)(C)CCl)c3)cc2)cc1 [Compound P1-7, 4-{(E)-1-[(E)-3-(chloromethyldimethylsiloxy)-4-(N,N-dimethylcarbamoyloxy)styrylsulfonyl]prop-1-en-2-yl}phenyl-2-(4-methoxyphenyl) acetate] | 8 ± 2 | 0.39 ± 0.03 | 0.71 ± 0.09 | 73 ± 5 | – | – | – | 0.88 ± 0.06 | – | 21.3 ± 4.43% | 41.2 ± 1.95% | 71 ± 3.67% | – | – | – | –
5 | CC[Si](CC)(Oc1ccc(C(Cl)S(=O)(=O)/C=C/c2ccc(OC(=O)N3CC(C)OC(C)C3)c(OC(=O)c3cccc(Cl)c3OC)c2)cc1)c1ccccc1 (stereo not shown) [Compound R1-5, (E)-4-{2-[4-(diethylphenylsiloxy)phenylchloromesyl]ethenyl}-2-(3-chloro-2-methoxybenzoyloxy)phenyl-2,6-dimethylmorpholine-4-carboxylate] | 17 ± 2 | 1.25 ± 0.08 | 0.87 ± 0.06 | 90 ± 6 | 23.8 ± 4.32% | 48.5 ± 3.68% | 73.6 ± 3.92% | 0.94 ± 0.03 | – | – | – | – | – | – | – | –
6 | Cc1ccc(S(=O)(=O)Oc2ccc(CS(=O)(=O)/C=C/c3ccc(OS(=O)(=O)c4ccc(C)cc4)c(OC(=O)N(C)S(=O)(=O)c4ccc(C)cc4)c3)cc2)cc1 [Compound S6-6, (E)-2-(N-methyl-N-p-tosylcarbamoyloxy)-4-{2-[(4-p-tosyloxyphenyl)mesyl]ethenyl}phenyl p-toluenesulfonate] | 9 ± 2 | 0.62 ± 0.04 | 1.08 ± 0.11 | 78 ± 4 | – | – | – | 1.07 ± 0.06 | – | 30.2 ± 2.97% | 59.2 ± 3.49% | 85.1 ± 4.41% | – | – | – | –
7 | O=C(/C=C/c1ccc(O)c(O)c1)OCCc1ccccc1 [Positive control group, caffeic acid phenethyl ester, reference compound] | 24 ± 2 | 1.28 ± 0.10 | 0.52 ± 0.07 | 132 ± 8 | 45.2 ± 3.85% | 77.1 ± 4.37% | – | 0.85 ± 0.04 | – | – | – | – | 31.5 ± 5.43% | – | – | –
8 | (E)-2-[(methylamino)methoxy]-4-{2-[1-(4′-nitro-[1,1′-biphenyl]-4-yl)ethylsulfonyl]ethenyl}phenylcarbamate [Compound M1-3] | 12 ± 2 | 0.84 ± 0.06 | 0.80 ± 0.09 | 110 ± 5 | – | – | – | 0.84 ± 0.06 | – | – | – | – | – | 23.93 ± 4.67% | 47.42 ± 4.43% | 73.41 ± 4.83%
